From ChEMBL document CHEMBL4680122, “Design, synthesis and biological evaluation of new Axl kinase inhibitors containing 1,3,4-oxadiazole acetamide moiety as novel linker” (Eur J Med Chem, 2020)

Key:
HT-29 = test: Antiproliferative activity against human HT-29 cells measured after 72 hrs by MTT assay; conditions: HT-29, 72 h
A549 = test: cells; conditions: Homo sapiens, A549, 72 h
Description: Antiproliferative activity against human A549 cells measured after 72 hrs by MTT assay

PC-3 = test: cells; conditions: Homo sapiens, PC-3, 72 h
Description: Antiproliferative activity against human PC-3 cells measured after 72 hrs by MTT assay

MCF7 = test: Antiproliferative activity against human MCF7 cells measured after 72 hrs by MTT assay; type: functional, cell-based; conditions: MCF7, 72 h
[1] = molecular target: Tyrosine-protein kinase receptor UFO (Homo sapiens) (UniProt P30530); conditions: dose 100.0 nM, time 1.0 hrs
Tyrosine-protein kinase receptor UFO (Homo sapiens), sequence (P30530 whole entry): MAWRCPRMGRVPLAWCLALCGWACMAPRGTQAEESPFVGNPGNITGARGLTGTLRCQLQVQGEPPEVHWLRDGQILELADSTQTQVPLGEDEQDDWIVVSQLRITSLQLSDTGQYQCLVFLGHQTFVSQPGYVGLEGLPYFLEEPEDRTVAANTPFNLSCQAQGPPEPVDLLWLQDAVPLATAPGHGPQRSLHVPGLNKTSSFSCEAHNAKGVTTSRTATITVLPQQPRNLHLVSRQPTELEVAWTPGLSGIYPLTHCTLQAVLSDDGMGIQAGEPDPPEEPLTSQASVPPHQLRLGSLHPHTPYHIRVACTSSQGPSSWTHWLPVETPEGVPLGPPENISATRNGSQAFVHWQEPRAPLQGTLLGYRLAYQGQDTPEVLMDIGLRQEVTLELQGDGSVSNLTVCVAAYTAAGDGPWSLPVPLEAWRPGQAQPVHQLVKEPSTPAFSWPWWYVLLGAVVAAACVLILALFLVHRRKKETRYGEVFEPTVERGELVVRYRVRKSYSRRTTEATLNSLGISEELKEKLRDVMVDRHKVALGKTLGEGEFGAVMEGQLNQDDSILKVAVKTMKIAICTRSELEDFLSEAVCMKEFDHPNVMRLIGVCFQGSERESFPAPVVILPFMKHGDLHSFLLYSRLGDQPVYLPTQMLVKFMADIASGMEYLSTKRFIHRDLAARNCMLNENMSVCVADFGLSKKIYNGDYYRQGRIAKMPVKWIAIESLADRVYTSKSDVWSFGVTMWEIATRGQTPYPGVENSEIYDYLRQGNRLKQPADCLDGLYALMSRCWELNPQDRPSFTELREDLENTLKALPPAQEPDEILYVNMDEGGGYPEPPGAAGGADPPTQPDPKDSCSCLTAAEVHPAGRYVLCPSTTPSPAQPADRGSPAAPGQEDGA

IC50 (HT-29) | IC50 (A549) | IC50 (PC-3) | IC50 (MCF7) | inhibition [1] | SMILES
1890 nM | 240 nM | 720 nM |  |  | COc1cc2c(Oc3ccc(NC(=O)c4ncc(-c5ccc(F)cc5)o4)cc3)ccnc2cc1OCCCN1CCC(C)CC1
13700 nM | 596 nM | 2410 nM |  |  | COc1cc2c(Oc3ccc(NC(=O)Cc4ncc(-c5ccc(F)cc5)o4)cc3F)ccnc2cc1OCCCN1CCOCC1
779 nM | 150 nM | 2340 nM | 310 nM |  | COc1cc2c(Oc3ccc(NC(=O)C4(c5nnc(-c6ccc(F)cc6)o5)CC4)cc3F)ccnc2cc1OCCCN1CCCC1
1270 nM | 76 nM | 1080 nM | 2700 nM |  | COc1cc2c(Oc3ccc(NC(=O)C(C)c4nnc(-c5ccc(F)cc5)o4)cc3F)ccnc2cc1OCCCN1CCCC1 (centres undefined)
52300 nM | 5140 nM | > 100000 nM |  |  | COc1cc2nccc(Oc3ccc(NC(=O)c4nnc(-c5ccc(F)cc5)o4)cc3)c2cc1OC
1030 nM | 263 nM | 1050 nM |  |  | COc1cc2c(Oc3ccc(NC(=O)C(C)(C)c4nnc(-c5ccc(F)cc5)o4)cc3F)ccnc2cc1OCCCN1CCCC1
4170 nM | 178 nM | 340 nM |  |  | COc1cc2c(Oc3ccc(NC(=O)Cc4ncc(-c5ccc(F)cc5)o4)cc3F)ccnc2cc1OCCCN1CCCC1
1050 nM | 143 nM | 1670 nM | 2610 nM |  | COc1cc2c(Oc3ccc(NC(=O)C4(c5nnc(-c6ccc(F)cc6)o5)CC4)cc3F)ccnc2cc1OCCCN1CCN(C)CC1
2480 nM | 275 nM | 1790 nM | 1600 nM |  | COc1cc2c(Oc3ccc(NC(=O)C(C)(C)c4nnc(-c5ccc(F)cc5)o4)cc3F)ccnc2cc1OCCCN1CCOCC1
4300 nM | 103 nM | 680 nM |  |  | COc1cc2c(Oc3ccc(NC(=O)Cc4nnc(-c5ccc(F)cc5)o4)cc3F)ccnc2cc1OCCCN1CCOCC1
871 nM | 215 nM | 1760 nM | 470 nM |  | COc1cc2c(Oc3ccc(NC(=O)C(C)(C)c4nnc(-c5ccc(F)cc5)o4)cc3F)ccnc2cc1OCCCN1CCCCC1
1540 nM | 38 nM | 970 nM | 2220 nM |  | CCC(C(=O)Nc1ccc(Oc2ccnc3cc(OCCCN4CCN(C)CC4)c(OC)cc23)c(F)c1)c1nnc(-c2ccc(F)cc2)o1 (centres undefined)
1040 nM | 1040 nM | 530 nM |  |  | COc1cc2c(Oc3ccc(NC(=O)Cc4ncc(-c5ccc(F)cc5)o4)cc3F)ccnc2cc1OCCCN1CCCCC1
6380 nM | 870 nM | 1040 nM |  |  | COc1cc2c(Oc3ccc(NC(=O)c4nc(-c5ccc(F)cc5)no4)cc3)ccnc2cc1OCCCN1CCC(C)CC1
7520 nM | 1560 nM | 410 nM |  |  | COc1ccc(-c2nnc(CC(=O)Nc3ccc(Oc4ccnc5cc(OCCCN6CCC(C)CC6)c(OC)cc45)c(F)c3)o2)cc1
583 nM | 102 nM | 680 nM |  |  | COc1cc2c(Oc3ccc(NC(=O)Cc4nnc(-c5ccc(Br)cc5)o4)cc3F)ccnc2cc1OCCCN1CCC(C)CC1
 | 210 nM | 810 nM | 2000 nM | 88% | COc1cc2c(Oc3ccc(NC(=O)C4(C(=O)Nc5ccc(F)cc5)CC4)cc3F)ccnc2cc1OCCCN1CCOCC1 [FORETINIB]
2460 nM | 630 nM | 360 nM |  |  | COc1cc2c(Oc3ccc(NC(=O)Cc4nnc(-c5ccc(Cl)cc5)o4)cc3F)ccnc2cc1OCCCN1CCC(C)CC1
7810 nM | 920 nM | 4730 nM |  |  | COc1cc2c(Oc3ccc(NC(=O)Cc4nnc(-c5ccccc5)o4)cc3F)ccnc2cc1OCCCN1CCC(C)CC1
2540 nM | 52 nM | 1180 nM | 1050 nM |  | COc1cc2c(Oc3ccc(NC(=O)C(C)c4nnc(-c5ccc(F)cc5)o4)cc3F)ccnc2cc1OCCCN1CCOCC1 (centres undefined)
39700 nM | 10300 nM | > 100000 nM |  |  | COc1cc2nccc(Oc3ccc(NC(=O)c4nc(-c5ccc(F)cc5)no4)cc3)c2cc1OC

IC50 (HT-29) | IC50 (A549) | IC50 (PC-3) | IC50 (MCF7) | inhibition [1] | SMILES
2520 nM | 254 nM | 570 nM |  |  | COc1cc2c(Oc3ccc(NC(=O)Cc4ncc(-c5ccc(F)cc5)o4)cc3F)ccnc2cc1OCCCN1CCN(C)CC1
109 nM | 105 nM | 540 nM |  |  | COc1cc2c(Oc3ccc(NC(=O)Cc4ncc(-c5ccc(F)cc5)o4)cc3F)ccnc2cc1OCCCN1CCC(C)CC1
442 nM | 120 nM | 2180 nM | 740 nM |  | COc1cc2c(Oc3ccc(NC(=O)C4(c5nnc(-c6ccc(F)cc6)o5)CC4)cc3F)ccnc2cc1OCCCN1CCC(C)CC1
554 nM | 119 nM | 400 nM | 460 nM |  | CCC(C(=O)Nc1ccc(Oc2ccnc3cc(OCCCN4CCC(C)CC4)c(OC)cc23)c(F)c1)c1nnc(-c2ccc(F)cc2)o1 (centres undefined)
1000 nM | 86 nM | 1260 nM | 1040 nM |  | COc1cc2c(Oc3ccc(NC(=O)C(C)c4nnc(-c5ccc(F)cc5)o4)cc3F)ccnc2cc1OCCCN1CCCCC1 (centres undefined)
4560 nM | 3750 nM | 8250 nM |  |  | COc1cc2nccc(Oc3ccc(NC(=O)C4(C(=O)Nc5ccc(F)cc5)CC4)cc3)c2cc1OC [CABOZANTINIB]
813 nM | 813 nM | 400 nM |  |  | COc1cc2c(Oc3ccc(NC(=O)Cc4nnc(-c5ccc(F)cc5)o4)cc3F)ccnc2cc1OCCCN1CCCCC1
2020 nM | 49 nM | 2530 nM | 2690 nM |  | CCC(C(=O)Nc1ccc(Oc2ccnc3cc(OCCCN4CCOCC4)c(OC)cc23)c(F)c1)c1nnc(-c2ccc(F)cc2)o1 (centres undefined)
1960 nM | 75 nM | 1700 nM | 1630 nM |  | COc1cc2c(Oc3ccc(NC(=O)C(C)c4nnc(-c5ccc(F)cc5)o4)cc3F)ccnc2cc1OCCCN1CCN(C)CC1 (centres undefined)
238 nM | 82 nM | 280 nM |  |  | COc1cc2c(Oc3ccc(NC(=O)Cc4nnc(-c5ccc(F)cc5)o4)cc3F)ccnc2cc1OCCCN1CCC(C)CC1
3480 nM | 71 nM | 410 nM |  |  | COc1cc2c(Oc3ccc(NC(=O)Cc4nnc(-c5ccc(F)cc5)o4)cc3F)ccnc2cc1OCCCN1CCN(C)CC1
648 nM | 420 nM | 1490 nM | 370 nM |  | COc1cc2c(Oc3ccc(NC(=O)C(C)(C)c4nnc(-c5ccc(F)cc5)o4)cc3F)ccnc2cc1OCCCN1CCC(C)CC1
570 nM | 78 nM | 1420 nM | 1040 nM |  | CCC(C(=O)Nc1ccc(Oc2ccnc3cc(OCCCN4CCCC4)c(OC)cc23)c(F)c1)c1nnc(-c2ccc(F)cc2)o1 (centres undefined)
7890 nM | 2730 nM | 3810 nM |  |  | COc1cc2c(Oc3ccc(NC(=O)c4nnc(-c5ccc(F)cc5)o4)cc3)ccnc2cc1OCCCN1CCC(C)CC1
1080 nM | 597 nM | 1900 nM | 2480 nM |  | COc1cc2c(Oc3ccc(NC(=O)C(C)(C)c4nnc(-c5ccc(F)cc5)o4)cc3F)ccnc2cc1OCCCN1CCN(C)CC1
2370 nM | 91 nM | 210 nM |  |  | COc1cc2c(Oc3ccc(NC(=O)Cc4nnc(-c5ccc(F)cc5)o4)cc3F)ccnc2cc1OCCCN1CCCC1
9330 nM | 1660 nM | 13000 nM | > 100000 nM |  | COc1cc2c(Oc3ccc(NC(=O)C4(c5nnc(-c6ccc(F)cc6)o5)CC4)cc3F)ccnc2cc1OCCCN1CCOCC1
1080 nM | 92 nM | 1470 nM | 410 nM |  | CCC(C(=O)Nc1ccc(Oc2ccnc3cc(OCCCN4CCCCC4)c(OC)cc23)c(F)c1)c1nnc(-c2ccc(F)cc2)o1 (centres undefined)
1160 nM | 106 nM | 330 nM |  |  | COc1cc2c(Oc3ccc(NC(=O)Cc4nc(-c5ccc(F)cc5)no4)cc3F)ccnc2cc1OCCCN1CCC(C)CC1
> 100000 nM | 5590 nM | 21900 nM |  |  | COc1cc2nccc(Oc3ccc(NC(=O)c4ncc(-c5ccc(F)cc5)o4)cc3)c2cc1OC
> 100000 nM | 40400 nM | 29400 nM |  |  | COc1cc2nccc(Oc3ccc(NC(=O)c4cc(-c5ccc(F)cc5)on4)cc3)c2cc1OC
